We go through two compounds from ChEMBL document CHEMBL1130502, “Lipopeptide antifungal agents: Amine conjugates of the semi-synthetic pneumocandins L-731,373 and L-733,560” (Bioorg Med Chem Lett, 1997).

For data set [1], the target named is 1,3-beta-glucan synthase (Candida glabrata, UniProt F5BCZ9). Briefly: Inhibition of 1,3-beta-glucan synthase. Details: species or system Candida glabrata CBS 138.
Data set [2] has as its system Candida albicans. Briefly: Tested for minimum fungicidal concentration (MFC) against Candida albicans (MY 1055). It is filed as functional.
Data set [3] deals with Candida albicans. In words: Tested for in vitro minimum fungicidal concentration (MFC) against C. albicans; 0.25-1. It is filed as functional.
Data set [4] concerns Meyerozyma guilliermondii. In words: Tested for in vitro minimum fungicidal concentration (MFC) against Candida guilliermondii 1-16. It is filed as functional.
Data set [5] concerns Pichia kudriavzevii. Briefly: Tested for in vitro minimum fungicidal concentration (MFC) against C. krusei; 2-4. Format: functional.
For data set [6], the system named is Kluyveromyces marxianus. Briefly: Tested for in vitro minimum fungicidal concentration (MFC) againstC. pseudotropicalis; 0.25-1. Format: functional.
The test system of data set [7] is Nakaseomyces glabratus. In words: Tested for in vitro minimum fungicidal concentration (MFC) against C. glabrata; 1-4. It is filed as functional.
For data set [8], the system named is Candida parapsilosis. Briefly: Tested for in vitro minimum fungicidal concentration (MFC) against C. parapsilosis; 0.25-1. Format: functional.
The subject of data set [9] is Candida tropicalis. In words: Tested for in vitro minimum fungicidal concentration (MFC) against C. tropicalis; 0.25-1. Format: functional.
In data set [10] the test system is Clavispora lusitaniae. Briefly: Tested for in vitro minimum fungicidal concentration (MFC) against Candida lusitaniae 0.125-1. Format: functional.
For data set [11], the system named is Cryptococcus neoformans. Briefly: Tested for in vitro minimum fungicidal concentration (MFC) against C. neoformans; 8-32. It is filed as functional.
The species named for data set [12] is Mus musculus. Briefly: […] anti-candida activity expressed as ED99.9 in a mouse model of disseminated candidiasis (TOKA). It is filed as functional.
The test system of data set [13] is Mus musculus. Briefly: In vivo effective intraperitoneal dose to achieve least 50% survival in a mouse model of disseminated aspergillosis. Format: functional. Conditions: ip.
The species named for data set [14] is Mus musculus. Briefly: Percentage of mice with complete eradication of candida in kidneys. Format: functional, Kidney.
Data set [15] is described as follows: Acute toxicity in mice after intravenous administration. To be noted: mouse, in vivo.
Data set [16] has as its system Candida albicans. In words: Tested for in vitro minimum fungicidal concentration (MFC) against C. albicans; 0.06-0.5. It is filed as functional.
Data set [17] concerns Pichia kudriavzevii. Briefly: Tested for in vitro minimum fungicidal concentration (MFC) against C. krusei; 0.25-0.5. Format: functional.
Data set [18] concerns Candida parapsilosis. In words: Tested for in vitro minimum fungicidal concentration (MFC) against C. parapsilosis; 0.5-1. Format: functional.
Data set [19] concerns Meyerozyma guilliermondii. Briefly: Tested for in vitro minimum fungicidal concentration (MFC) against C. guilliermondii; 0.125-0.5. It is filed as functional.
For data set [20], the system named is Candida tropicalis. In words: Tested for in vitro minimum fungicidal concentration (MFC) against C. tropicalis; 0.25-0.5. It is filed as functional.
Data set [21] deals with Kluyveromyces marxianus. Briefly: Tested for in vitro minimum fungicidal concentration (MFC) against C. pseudotropicalis; 0.125-0.5. Format: functional.
Data set [22] concerns Clavispora lusitaniae. In words: Tested for in vitro minimum fungicidal concentration (MFC) against C. lusitaniae; 0.5-2. It is filed as functional.
The test system of data set [23] is Nakaseomyces glabratus. Briefly: Tested for in vitro minimum fungicidal concentration (MFC) against C. glabrata; 0.125-0.5. It is filed as functional.
The test system of data set [24] is Cryptococcus neoformans. Briefly: Tested for in vitro minimum fungicidal concentration (MFC) against C. neoformans; 0.125-0.5. Format: functional.

In brackets after ≈: the same amount, converted by molar mass.

1,3-beta-glucan synthase, sequence (F5BCZ9 whole entry): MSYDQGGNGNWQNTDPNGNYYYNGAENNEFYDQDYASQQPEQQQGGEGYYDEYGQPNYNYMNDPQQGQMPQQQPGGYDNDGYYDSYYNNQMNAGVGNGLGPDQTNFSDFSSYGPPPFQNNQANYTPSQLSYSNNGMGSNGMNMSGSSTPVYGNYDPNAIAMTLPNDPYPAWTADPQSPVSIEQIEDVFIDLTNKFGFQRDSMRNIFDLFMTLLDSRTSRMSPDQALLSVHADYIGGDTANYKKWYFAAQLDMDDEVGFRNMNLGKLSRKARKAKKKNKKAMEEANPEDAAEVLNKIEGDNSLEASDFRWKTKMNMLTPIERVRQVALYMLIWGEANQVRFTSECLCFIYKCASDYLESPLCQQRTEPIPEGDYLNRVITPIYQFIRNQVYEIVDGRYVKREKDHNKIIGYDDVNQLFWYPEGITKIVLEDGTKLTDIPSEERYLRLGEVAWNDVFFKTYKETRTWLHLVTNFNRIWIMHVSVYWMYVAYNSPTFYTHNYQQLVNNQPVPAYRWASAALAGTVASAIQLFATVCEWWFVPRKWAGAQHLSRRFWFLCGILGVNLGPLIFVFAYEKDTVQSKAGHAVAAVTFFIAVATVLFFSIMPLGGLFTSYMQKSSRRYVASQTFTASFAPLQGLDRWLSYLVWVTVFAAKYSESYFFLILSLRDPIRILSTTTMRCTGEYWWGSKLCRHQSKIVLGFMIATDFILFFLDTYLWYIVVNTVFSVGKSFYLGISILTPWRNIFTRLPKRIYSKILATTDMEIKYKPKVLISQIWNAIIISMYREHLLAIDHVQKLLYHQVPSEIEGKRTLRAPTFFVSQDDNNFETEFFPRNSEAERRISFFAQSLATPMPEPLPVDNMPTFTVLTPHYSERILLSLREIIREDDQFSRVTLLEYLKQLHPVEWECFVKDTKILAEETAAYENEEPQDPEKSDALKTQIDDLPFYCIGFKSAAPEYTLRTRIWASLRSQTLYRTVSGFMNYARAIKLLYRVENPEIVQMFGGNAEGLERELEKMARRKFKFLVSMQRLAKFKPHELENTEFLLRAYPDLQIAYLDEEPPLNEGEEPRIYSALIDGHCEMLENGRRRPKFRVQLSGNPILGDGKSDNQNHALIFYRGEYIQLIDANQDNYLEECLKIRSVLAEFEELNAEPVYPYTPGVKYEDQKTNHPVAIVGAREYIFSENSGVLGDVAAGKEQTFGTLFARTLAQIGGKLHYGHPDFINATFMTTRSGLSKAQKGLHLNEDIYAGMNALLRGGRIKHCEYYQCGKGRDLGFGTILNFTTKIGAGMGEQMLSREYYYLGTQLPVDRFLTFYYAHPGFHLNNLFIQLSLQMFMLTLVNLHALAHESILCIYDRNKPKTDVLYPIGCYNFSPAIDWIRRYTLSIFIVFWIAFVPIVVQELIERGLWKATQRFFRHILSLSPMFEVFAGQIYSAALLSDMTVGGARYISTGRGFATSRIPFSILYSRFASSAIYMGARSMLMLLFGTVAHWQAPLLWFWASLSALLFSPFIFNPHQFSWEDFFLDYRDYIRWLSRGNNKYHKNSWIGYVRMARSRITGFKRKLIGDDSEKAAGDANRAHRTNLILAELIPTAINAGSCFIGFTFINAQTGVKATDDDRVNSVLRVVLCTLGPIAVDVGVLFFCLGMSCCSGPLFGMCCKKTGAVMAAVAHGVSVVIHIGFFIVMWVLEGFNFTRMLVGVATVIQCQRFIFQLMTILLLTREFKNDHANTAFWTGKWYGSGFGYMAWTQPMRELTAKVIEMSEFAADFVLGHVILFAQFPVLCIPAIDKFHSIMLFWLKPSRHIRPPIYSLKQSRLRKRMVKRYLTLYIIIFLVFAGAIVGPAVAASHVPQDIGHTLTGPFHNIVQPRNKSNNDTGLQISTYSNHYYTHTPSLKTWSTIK

In data set [1], `CCC(C)CC(C)CCCCCCCCC(=O)NC1C[C@@H](O)[C@@H](OCCN)NC(=O)C2CN(C[C@@H]2O)C(=O)[C@H]([C@H](O)CCNC(=O)[C@@H](N)CCCN)NC(=O)[C@H]([C@H](O)[C@@H](O)c2ccc(O)cc2)NC(=O)C2C[C@@H](O)CN2C(=O)[C@H]([C@@H](C)O)NC1=O` (some centres undefined) had an IC50 of 1.5 nM. In data set [2], the MFC is < 0.06 µg/mL. Moreover, the MFC90 in [3] came to 1 µg/mL (≈ 0.827 µM); in data set [4], 8 µg/mL (≈ 6.62 µM); in data set [5], 4 µg/mL (≈ 3.31 µM); in [6] it was 1 µg/mL (≈ 0.827 µM); in data set [7], 2 µg/mL (≈ 1.65 µM); in data set [8], 1 µg/mL (≈ 0.827 µM). The MFC90 in [9] amounted to 1 µg/mL (≈ 0.827 µM); in data set [10], 0.5 µg/mL (≈ 0.414 µM); in [11], 32 µg/mL (≈ 26.5 µM). Moreover, the ED99.9 in [12] was 0.09 mg/kg. The ED50 in [13] stood at 0.03 mg/kg. The same compound gave a Sterilized in data set [14] of 70%. In [15], this compound yielded a Dose of 80 mg/kg.
On to `C[C@@H]1[C@H](O)[C@@H](C)/C=C/C=C/C=C/C=C/C=C/C=C/C=C/[C@H](O[C@@H]2O[C@H](C)[C@@H](O)[C@H](N)[C@@H]2O)C[C@@H]2O[C@](O)(C[C@@H](O)C[C@@H](O)[C@H](O)CC[C@@H](O)C[C@@H](O)CC(=O)O[C@H]1C)C[C@H](O)[C@H]2C(=O)O` [AMPHOTERICIN B], for which the MFC90 came to 0.25 µg/mL (≈ 0.271 µM) in data set [16]; 0.5 µg/mL (≈ 0.541 µM) in data set [17]; 1 µg/mL (≈ 1.08 µM) in [18]; 0.5 µg/mL (≈ 0.541 µM) in [19]; 0.5 µg/mL (≈ 0.541 µM) in data set [20]; 0.5 µg/mL (≈ 0.541 µM) in data set [21]. For the same compound, the figures for the MFC90 in data set [22], in [23] and in data set [24] were 2 µg/mL (≈ 2.16 µM), 0.5 µg/mL (≈ 0.541 µM) and 0.5 µg/mL (≈ 0.541 µM), respectively.
